According to patent publication US10132810B2, “Method for assessing and predicting efficacy of breast cancer treatment with a long-acting topoisomerase I inhibitor” (priority 2012, dated 2018):
Read-outs that look alike come from different tables or passages of the source.

Assays:
serum CA27.29 = tested on: serum CA27.29
Experimental: Medical history was taken at screening and on day 1 of each cycle. Physical exam was performed and serum CA27.29, complete blood count with differential, and serum chemistry were analyzed at screening, on day 1 of each cycle, and at end of treatment. Coagulation parameters were analyzed at screening and on day 1 of each cycle. […] Patients were contacted approximately every 3 months after the end-of-treatment visit to assess progression (in the absence of progression on study), survival, receipt of subsequent anti-cancer therapy, and resolution of toxicity.
Secondary endpoints were PFS, overall survival (OS), 6-month and 1-year survival, and safety. Exploratory endpoints included change from baseline in CA27.29, UGT1A1 and ABCC2 polymorphism for correlation with select toxicities.
The analysis dataset utilized consisted of 45 patients having at least two CA27.29 measurements (pre- and post-first dose).
Levels of CA27.29 were also evaluated for correlation with tumor size over the course of treatment.

[1] = tested on: patients with previously treated metastatic breast cancer; assay: Efficacy of two dosing schedules in patients with previously treated metastatic breast cancer (RECIST response, PFS, OS); assay type: in vivo, human
Experimental: Seventy patients were enrolled in the trial (n=35 per arm). […] Patients received treatment until disease progression or unacceptable toxicity. The drug dosage was dose-reduced by 25 mg/m^2 for grade 3-4 hematologic toxicity, grade 3-4 diarrhea, and other grade 2-4 non-hematologic toxicities (other than alopecia, anorexia, asthenia, and untreated nausea/vomiting). […] Medical history was taken at screening and on day 1 of each cycle. […] Coagulation parameters were analyzed at screening and on day 1 of each cycle. […] Patients were contacted approximately every 3 months after the end-of-treatment visit to assess progression (in the absence of progression on study), survival, receipt of subsequent anti-cancer therapy, and resolution of toxicity. […] Exploratory endpoints included change from baseline in CA27.29, UGT1A1 and ABCC2 polymorphism for correlation with select toxicities. Three populations for analysis were defined: 1) intent-to-treat (ITT), 2) efficacy evaluable, and 3) safety. The ITT population was the primary population for all efficacy analyses and included all randomized patients. […] The safety population consisted of all patients who received at least one dose or partial dose of chemotherapeutic agent. Summary statistics were used for continuous variables, frequency counts and percentages were used for categorical variables. Ninety-five percent confidence interval were calculated for ORR using the Exact method. Time-to-event variables were analyzed using the Kaplan-Meier method.

## Pentaerythritolyl-4-Arm-(PEG-1-Methylene-2 Oxo-Vinylamino Acetate linked-Irinotecan)-20K [4-arm-PEG-gly-irino-20K]
Serum CA27.29; 145 mg/m^2, both q14d and q21d regimens, FIGS. 1A and 1B
  decrease in serum CA27.29 levels over time: at least twenty five
Serum CA27.29; RECIST PD, FIG. 5
  median change in CA27.29: increased
Serum CA27.29; RECIST PR and CR, FIG. 5
  median of the maximum CA27.29 decline: > 50%
Serum CA27.29; RECIST SD < 6 months, FIG. 5
  median decline in CA27.29: negligible
Serum CA27.29; RECIST SD >= 6 months, FIG. 5
  median of the maximum decline in CA27.29: 30%
Serum CA27.29; Total, 16/45 patients
  Overall best CA27.29 response (50% or better decline in at least one observation from baseline): 36% (16/45)
Serum CA27.29; patients with <25% reduction (n=4) or elevations (n=13) in CA27.29 by week 6
  median PFS: 6 months
Serum CA27.29; patients with >=25% reduction in CA27.29 by week 6 (n=12)
  median PFS: 12 months
Serum CA27.29; patients with RECIST PD (8/10)
  patients showing CA27.29 elevation from baseline: Eighty
Serum CA27.29; patients with RECIST SD >= 6 months (n=5)
  patients manifesting declines in CA27.29: All patients
Serum CA27.29; patients with SD < 6 months (6/11)
  patients showing a decline in CA27.29: 55%
[1]; 145 mg/m^2 iv, administered every 14 days or every 21 days
  objective response rate (ORR): 28.6%
[1]; Total (both schedules)
  Overall Survival (OS): 10.3 months
  Progression Free Survival (PFS): 4.6 months
[1]; Total (both schedules), N = 66
  Overall Response Rate (ORR): 29% (N = 66)
[1]; q21d schedule
  Overall Survival (OS): 13.1 months
  Progression Free Survival (PFS): 5.3 months
